The structures appear in SMILES notation.

Results on ten compounds are retold here after patent US11413348B2, “Low molecular weight cationic lipids for oligonucleotide delivery” (SIRNA THERAPEUTICS, INC., priority 2010, dated 2022).

One assay relates to mRNA transcript for the firefly (Photinus pyralis) luciferase gene. Nature of the assay: Mouse in vivo evaluation of efficacy (luciferase siRNA LNPs, liver luminescence). The following applies: Luc siRNA RDV, tail vein, 48 hours post dose, FIG. 1. As to the method:
LNPs utilizing Compounds 1-44, in the nominal compositions described immediately above, were evaluated for in vivo efficacy. The siRNA targets the mRNA transcript for the firefly (Photinus pyralis) luciferase gene (Accession #M15077). […] The in vivo luciferase model employs a transgenic mouse in which the firefly luciferase coding sequence is present in all cells. ROSA26-LoxP-Stop-LoxP-Luc (LSL-Luc) transgenic mice licensed from the Dana Farber Cancer Institute are induced to express the Luciferase gene by first removing the LSL sequence with a recombinant Ad-Cre virus (Vector Biolabs). Due to the organo-tropic nature of the virus, expression is limited to the liver when delivered via tail vein injection. Luciferase expression levels in liver are quantitated by measuring light output, using an IVIS imager (Xenogen) following administration of the luciferin substrate (Caliper Life Sciences). Pre-dose luminescence levels are measured prior to administration of the RDVs. Luciferin in PBS (15 mg/mL) is intraperitoneally (IP) injected in a volume of 150 μL. After a four minute incubation period mice are anesthetized with isoflurane and placed in the IVIS imager. The RDVs (containing siRNA) in PBS vehicle were tail vein injected in a volume of 0.2 mL. […] In vivo efficacy results are expressed as % inhibition of luminescence relative to pre-dose luminescence levels. […]
With `CCCCC/C=C\C/C=C\CCCCCCCCCC(CCCCCCCCC)N(C)C` (centres unmarked) [Compound 1, (20Z,23Z)—N,N-dimethylnonacosa-20,23-dien-10-amine], the “efficacy (% inhibition of luminescence) compared with RDV containing octyl-CLinDMA (OCD)” value is listed as “Greater efficacy”.

In a further assay the target is T1, serum ApoE (Macaca mulatta, UniProt Q28502).
T1 construct: from tissue; host or cells: rhesus monkey serum
T1 sequence (Q28502 19-295): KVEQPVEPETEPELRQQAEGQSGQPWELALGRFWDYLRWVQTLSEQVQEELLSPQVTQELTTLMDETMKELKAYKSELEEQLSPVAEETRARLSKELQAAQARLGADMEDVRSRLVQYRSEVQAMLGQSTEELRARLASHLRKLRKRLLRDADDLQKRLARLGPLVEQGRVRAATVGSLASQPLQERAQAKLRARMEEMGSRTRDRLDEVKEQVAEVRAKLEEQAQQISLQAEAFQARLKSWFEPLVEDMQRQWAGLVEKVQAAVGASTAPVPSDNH
Nature of the assay: Heparin Sepharose HI-TRAP binding assay. Details: species or system rhesus monkey. As to conditions: HI-TRAP binding upon rhesus serum incubation, 2×DPBS conditions. As to the method: Lipid nanoparticles (LNP) with neutral surface charge are not retained after injection onto heparin sepharose with 1× Dulbecco's phosphate buffered saline (DPBS) as the running buffer but elute in the column void volume. […] Lipid nanoparticles with surface bound ApoE bind to heparin sepharose with high affinity and are eluted only at high salt (1M NaCl).
Lipid nanoparticles were incubated at 37° C. for 20 min at a final siRNA concentration of 50 μg/mL with various concentrations of either purified or recombinant human apolipoprotein E or 0.1-50% rat/mouse/rhesus monkey/human serum in 1× Dulbccco's phosphate buffered saline (DPBS). After incubation with ApoE or serum LNP samples were diluted 10-fold using 1×DPBS and analyzed by heparin sepharose chromatography. Peak area of retained LNP (after subtraction of appropriate blank signals) is compared to total peak area of LNP control without ApoE and/or serum incubation to determine the percentage of the LNP which undergoes shift to high affinity heparin interaction after incubation with ApoE/serum.
A heparin sepharose HI-TRAP™ chromatography column (GE Healthcare; 1 mL bed volume) is equilibrated with either 1× or 2× Dulbecco's PBS; the higher 2× salt concentration is used for LNPs with higher intrinsic retention on heparin sepharose (presumably due to higher positive surface charge). • Mobile Phase A: 1× or 2×DPBS • Mobile Phase B: 1M NaCl in 10 mM sodium phosphate buffer, pH 7.0 • 100% A delivered isocratically for 10 min followed by step gradient to 100% B; hold for additional 10 min; step gradient back to 100% A and reequilibrate for additional 10 min prior to injection of next sample • Flow rate: 1 mL/min • Sample injection volume: 50 μL. • Detection: UV @260 nm HI-TRAP™ Binding Results Upon Rhesus Serum Incubation (2×DPBS Conditions)
For `CCCCC/C=C\C/C=C\CCCCCCCCC1(CCCCCCCC/C=C\C/C=C\CCCCC)OCC(CCN(C)C)O1` (centres unmarked) [Compound 45, DLinKC2DMA, reference compound], the “% Bound” value was 58%.

`CCCCC/C=C\C/C=C\CCCCCCCCC(CCCCCCCC/C=C\C/C=C\CCCCC)OC(=O)CCCN(C)C` [Compound 46, MC3, reference compound]: the “% Bound” value came to 7%.

In the next assay the target is T2, ApoE (Macaca mulatta, UniProt Q28502).
T2 construct: from tissue; host or cells: rhesus serum
T2 sequence (Q28502 19-295): as above
Nature of the assay: In vitro ApoE binding assay (anti-PEG capture, ApoE ELISA, stem-loop RT-PCR). The following applies: LNP 4 ug/mL in 90% rhesus serum, 37° C., 20 minutes; estimate of 500 siRNA per LNP. How it is done:
LNPs are incubated at 37° C. in 90% rhesus serum at a final LNP concentration of 4 ug/mL. Incubation is for 20 minutes with orbital rotation. After incubation, the samples are diluted 1:20 in PBS and 100 uL of each diluted sample is aliquoted to wells of an anti-PEG antibody coated 96-well plate (Life Diagnostics Cat. No. P-0001PL. After incubation at room temperature for 1 hour, the plate is washed 5× with 300 uL PBS. After washing, 50 uL of 0.2% Triton X-100 is added to each well and the plate incubated at 37° C. for 10 minutes, followed by shaking on a plate shaker for 1 minute at 750 rpm. Samples are frozen prior to performing the ApoE ELISA and stem loop PCR analysis of samples.
An ApoE ELISA assay is performed to quantitate ApoE bound to the LNPs after incubation in rhesus serum. Anti-ApoE antibody (Milipore, Cat No. AB947) is diluted 1:1000 in PBS and 100 uL of diluted antibody is added to each well of a polystyrene high binding plate. The plate with antibody is incubated overnight at 4° C., after which the plate is washed 2× with 200 uL of PBS. Next, 200 uL of buffer containing 1% BSA and 0.05% Tween-20 in PBS (Incubation Buffer) is added to each well followed by incubation at room temperature for 1 hour. Plates are washed 5× with PBS containing 0.05% Tween-20. Frozen Triton lysis test samples are thawed and diluted 1:6 with incubation buffer and 100 uL of test sample is aliquoted to wells of the ApoE antibody plate. Incubation is for 1 hour at room temperature followed by a 5× wash with PBS containing 0.05% Tween-20. After washing, 100 uL of biotinylated anti-ApoE antibody (Mabtech, Cat. ANo. E887-biotin), diluted 1:500 in incubation buffer, is added to each well and incubated for 1 hour at room temperature, followed by a 5× wash with 0.05% Tween-20 in PBS. 100 uL per well, of Streptavidin-HPR (Thermo, Cat. No. TS-125-HR), is then added and incubated for 1 hour at room temperature. After washing 5× with 0.05% Tween-20 in PBS, 100 uL of TMB Substrate (Thermo, Cat. No. 34028) is added to each well, followed by incubation at room temperature for 20 minutes in the dark. The calorimetric reaction is slopped with 100 uL of TMB Stop Solution (KPL, Cat. No. 50-85-04) and absorbance at 450 nm is determined. An ApoE standard curve is prepared by diluting rhesus Recombinant ApoE in incubation buffer with 0.03% Triton X-100 with concentrations ranging from 100 ng/mL to 0.78 ng/mL. ApoE standards are evaluated in the ELISA in parallel to the test samples. A rhesus serum only (no LNP) control is utilized to obtain a background subtraction for non-LNP dependent ApoE signal in the ELISA.
To normalize to the ApoE bound to the amount of LNP bound to the anti-PEG antibody plate, the amount of siRNA retained in the anti-PEG antibody well is quantitated by stem-loop PCR and related to the number of siRNAs encapsulated per LNP, to give an approximate measure of total LNP particles bound per well.
The standard curve is prepared using the molecular weight of the siRNA (13693 g/mol for ApoB 17063) to calculate the copy number. The high standard should contain 10^11 copies per 3 μl. A 10-fold serial dilution is performed across a row of an assay plate until the lowest standard contains 10^2 copies per 3 μl. Dilute 0.2% Triton X-100 1:80 in water and pipette 20 uL of the diluted Triton X-100 into 10 wells of a 96 well plate. 30 uL of the serial diluted standard curve and mix are added to each well of the plate. 10 uL of the spiked standard curve is used in the reverse transcription reaction.
Triton lysates from the PEG antibody plate capture are diluted 1 to 2000 in nuclease free water. 10 uL of ‘RT-Primer Mix’ (Applied Biosystem's TaqMan MicroRNA Reverse Transcription Kit Cat. No. 4366596) is added to each well of a 96-well Micro-Amp QPCR plate (ABI Cat #N801-0560).
[…] of each test sample (diluted 1 to 2000) or spiked standard curve (above) are aliquoted into the 96-well plate. […]
`CCCCC/C=C\C/C=C\CCCCCCCC(CCCCCCCCC)N(C)C` (centres unmarked) [Compound 8, (18Z,21Z)—N,N-dimethylheptacosa-18,21-dien-10-amine]: the “ApoE Molecules/LNP” value was 4.9 Molecules/LNP. Regarding `CCCCC/C=C\C/C=C\CCCCCCCCCCCC(CCCCCCCC)N(C)C` (centres unmarked) [Compound 16, (21Z,24Z)—N,N-dimethyltriaconta-21,24-dien-9-amine], the “ApoE Molecules/LNP” value is 3.3 Molecules/LNP. Same read-out and setting: as for `CCCCCCCCCCC/C=C\CCCCC(CCCCCCCCC)N(C)C` (centres unmarked) [Compound 24, (15Z)—N,N-dimethylheptacos-15-en-10-amine], the figure is 1.2 Molecules/LNP. On to `CCCCCCCCCCCCCC/C=C\CCCC(CCCCCCCCC)N(C)C` (centres unmarked) [Compound 25, (14Z)—N,N-dimethylnonacos-14-en-10-amine], for which the “ApoE Molecules/LNP” value is recorded as 13.7 Molecules/LNP.

With `CCCCCCCC/C=C\CCCCCCCCCC(CCCCCCCCC)N(C)C` (centres unmarked) [Compound 28, (20Z)—N,N-dimethylnonacos-20-en-10-amine], the “ApoE Molecules/LNP” value was 4.7 Molecules/LNP. On the same count and under the same terms, as for `CCCCCCCC/C=C\CCCCCCCCCCCC(CCCCCCCCC)N(C)C` (centres unmarked) [Compound 29, (22Z)—N,N-dimethylhentriacont-22-en-10-amine], the figure is 38 Molecules/LNP; as for `CCCCCCCCCC(CCCCCCCCC[C@H]1C[C@H]1CCCCCC)N(C)C` (stereo partly drawn) [Compound 34, 1-[(1S,2R)-2-hexylcyclopropyl]-N,N-dimethylnonadecan-10-amine], 2.3 Molecules/LNP. Same read-out and setting: as for `CCCCC/C=C\C/C=C\CCCCCCCCC1(CCCCCCCC/C=C\C/C=C\CCCCC)OCC(CCN(C)C)O1` (centres unmarked) [Compound 45, DLinKC2DMA, reference compound], the figure is 32.5 Molecules/LNP.
